# Data reported in patent publication US20240310361A1, “METHOD OF […] RESPONSE OF CELL GROUP TO TEST SUBSTANCE” (CANON KABUSHIKI KAISHA, priority 2023, published 2024).
# Test system: PBMCs
# Assay: Calcium-derived fluorescence check of immobilized Fluo-4-stained PBMCs with a calcium ionophore
# Format: cell-based
# Conditions: final concentration 1 μg/mL; PBMCs immobilized on BAM-modified glass bottom dish; FIG. 8/9
# Protocol: It is found from FIG. 7 that the PBMCs can be immobilized under a dense state at positions subjected to the BAM modification. […] It was able to be recognized that the cells were immobilized so as to satisfy the condition. In addition, to recognize whether or not fluorescence derived from calcium was able to be observed with the immobilized cells, a calcium ionophore (A23187) was added at a final concentration of 1 μg/mL. […] FIG. 8 is a fluorescence image before the addition of the calcium ionophore, and FIG. 9 is a fluorescence image after the addition.
# In this Example, the fluorescence images were acquired with an inverted microscope (TE200-U, manufactured by Nikon Corporation), a CCD camera (EM-CCD DIGITAL CAMERA/C9100-13, manufactured by Hamamatsu Photonics K.K.), and a filter set (excitation: from 450 nm to 490 nm, DM: 505 nm, fluorescence: 520 nm).
# Floating PBMCs were recovered from the PBMCs cultured overnight, and 7 mL of PBS was added thereto, followed by centrifugation at 300 G for 8 minutes. The supernatant was removed, and the residue was suspended in 10 mL of PBS, followed by the counting of a cell number. […]
smiles,measurement,value
CNc1ccc2oc(C[C@H]3O[C@@]4(CC[C@H]3C)O[C@H]([C@H](C)C(=O)c3ccc[nH]3)[C@H](C)C[C@H]4C)nc2c1C(=O)O [A23187],fluorescence derived from calcium in immobilized cells,fluorescence was able to be observed in each of substantially all the immobilized PBMCs
